Results on one compound are retold here after patent publication US5760000A (University Technologies International,Inc., priority 1994, dated 1998).

Molecules are shown by their SMILES. Entries after “also recorded” stand apart in the source; their conditions may differ. Read-outs that look alike come from different tables or passages of the source.

What is called Kd is the concentration at which binding is half-saturated.

In experiment [1] the target is GnRH binding sites (normal human liver). As to the kind of experiment: GnRH in vitro binding to non-cancerous postmortem human liver membrane preparation. Conditions: Labeled ligand 125I-[D-Lys6]-GnRH; 95% confidence interval in parentheses; read-out: Receptor Binding Activity (Kd, nM) Normal Human Liver. Here is the method: (§1) Cells were grown to confluence as previously described and harvested from the flasks by using a rubber policeman. The cells were washed in normal assay buffer (([…] Tris[hydroxymethyl] aminomethane[Tris]-HCl), containing 1 mM dithiothreitol and 0.5% BSA [fraction-V] (pH 7.6)) and precipitated by centrifugation at 500g for 5 minutes at 4° C.
(§2) The cleaned cells were homogenized in 50 ml of freshly prepared ice cold 25 mM sucrose in assay buffer containing 1 mM Phenylmethanesulphonyl fluoride and 5 mM Ethylenediaminetetraacetic acid, using a glass TEFLON (polytetra-fluoroethylene) homogenizer, followed by centrifugation at 100 ×g for 5 minutes (4° C.). The supernatant was further centrifuged at 17,000×g for 30 minutes at 4° C., and the pellet (crude membrane preparation) washed briefly and resuspended in the assay buffer (approximately 40-50 μg membrane protein or approximately 1 x 10^6 cell equivalent per 100 μl).
(§3) A similar protocol was used to prepare the membrane from fresh rat and frozen human postmortem liver. In all experiments the final membrane preparation was used in the radioreceptor assay within 45 minutes.
(§4) For protein determination, aliquots of crude membrane preparations were washed twice with double distilled water by centrifugation (25,000 ×g) and assayed for protein content, using BSA as the standard. The binding assay was carried out at 4° C.
(§5) The displacement curves were fitted for both single and two classes of binding sites by computer calculated lines, as described.
(§6) Homologous displacement of GnRH-related peptides in membrane homogenates prepared from HepG2 cells and non-cancerous postmortem human liver tissue was studied. Values (mean ± SEM) represent specific binding [B/T, bound over total, in %] determined by subtraction of non-saturable binding in the presence of excess peptides (10^-5 M). Results were obtained from 5 to 7 separated experiments, each carried out in triplicate. The binding data were analyzed by computerized Scatchard analysis (LIGAND) according to Munson and Rodbard.

Experiment [2] has as its target GnRH binding sites (normal rat liver). As to the kind of experiment: GnRH in vitro binding to normal rat liver membrane preparation. Conditions: Labeled ligand 125I-[D-Lys6]-GnRH; 95% confidence interval in parentheses; read-out: Receptor Binding Activity (Kd, nM) Normal Rat Liver. Here is the method: as §1, §2, §3, §4, §5
For experiment [3], the system named is HepG2 cells. The experiment is described as follows: HepG2 cell proliferation (cell counting). In kind it is cell-based. Here is the method:
(§7) HepG2 or HuH-7 cells were maintained in 75-cm^2 flasks at 37° C. under a humidified atmosphere of 5% CO2 in modified Minimum Essential Medium (Gibco-BRL) supplemented with 10% fetal bovine serum, 200mM 1-Glutamine (1%), Penicillin (1000 IU/ml), streptomycin (100 μg/ml) and sodium bicarbonate (0.15%). Cells grown to confluence were harvested following mild trypsinization and wash (twice by slow centrifugation; 400 g for 10 minutes) in normal culture medium.
(§8) Approximately 50,000 cells in 1.0 ml culture media were plated in 24 deep well plates (Flacon). This time was considered day -1. Cells were allowed to grow for one day. The growing cells were then treated with various hormones (at day 0) prepared aseptically in culture media immediately prior to addition. The final volume was maintained at 1 ml. The plates were then incubated at 37° C. for a period of 4 to 6 days, as described above.
(§9) Cells in each well were harvested by removal of culture media and incubation with 0.5 ml 0.25% trypsin and 1.75 mM EDTA for 30 minutes at 37° C. Cells were then transferred into 1.5 ml microfuge tubes and centrifuged at 100g for 10 minutes. The supernatant was removed and the pellet was resuspended in a final volume of 200 μl of culture media containing 10% trypan blue.
Cells were then counted using a hemocytometer. The average cell mortality was less than 5.0% and was not different among different treatment groups. Each value represents the mean and standard error of several experiments (n>3), each carried out in quadruplicate incubations at each time point and hormone concentration.
(§10) The potency of various GnRH-related peptides in terms of binding (equilibrium dissociation constant; kd) and growth suppression activity in the human hepatocarcinoma derived cell line HepG2 was studied. […] Data analysis was performed as described.
The effect of GnRH-related peptides on the proliferation of the human hepatoma derived cell line HepG2 was studied. Values (mean ± SEM) represent the percent change with respect to initial cell number at day 0 over a period of six days in culture.
The dose response curves were analyzed by a computerized, four parameter curve fitting program (ALLFIT) as described. The result of time-related response on cell proliferation was analyzed using a two-way ANOVA with multiple comparison means of using computerized statistical package (SYSTAT).

The target of experiment [4] is GnRH receptor (HepG2 membrane preparation). As to the kind of experiment: GnRH in vitro binding to HepG2 membrane preparation (radioreceptor assay). Details: species or system human. The following applies: Labeled ligand 125I-[D-Lys6]-GnRH; 95% confidence interval in parentheses; 4° C. As for the experimental part: as §1, §2, §4, §5, §10, §6
The subject of experiment [5] is HuH-7 cells. As to the kind of experiment: 3H-thymidine uptake in HuH-7 cells. The following applies: 10^-7 M, time-related. It is filed as cell-based, human. As for the experimental part:
(§11) […] 3H-thymidine (Amersham TRK.120, 102 mCi/mg) was added to each well and was incubated at 37° C. for 4 hours. The media containing unabsorbed 3H-thymidine was aspired off and the cells were washed twice with ice cold phosphate buffered saline (PBS). The cells were then fixed with 5% trichloro acetic acid (TCA) for 20 minutes and washed twice with double distilled water. The fixed cells were solubilized with 0.2 ml NCS tissue solubilizer (Amersham) and counted for radioactivity using a liquid scintillation counter (50% efficiency).

Experiment [6] has as its system HepG2 cells. The experiment is described as follows: 3H-thymidine uptake in HepG2 cells. In kind it is cell-based, human. As for the experimental part:
as §11
The effect of GnRH-related peptides on ^3 H-thymidine incorporation was tested to assess changes in DNA synthesis of HepG2 cells (FIGS. 7A and 7B). Methods used were as previous described.

Experiment [7] relates to HuH-7 cells. As to the kind of experiment: HuH-7 cell proliferation. In kind it is cell-based, human. Conditions: single administration at 10^-7 M, six days in culture. Here is the method:
as §7, §8, §9
Cells were then counted using a hemocytometer. […]

`CC(C)C[C@H](NC(=O)[C@@H](CCCCN)NC(=O)[C@H](Cc1ccc(O)cc1)NC(=O)[C@H](CO)NC(=O)[C@H](Cc1c[nH]c2ccccc12)NC(=O)[C@H](Cc1c[nH]cn1)NC(=O)[C@@H]1CCC(=O)N1)C(=O)N[C@@H](CCCNC(=N)N)C(=O)N1CCC[C@H]1C(=O)NCC(N)=O` [[D-Lys^6]-GnRH, pGlu-His-Trp-Ser-Tyr-DLys-Leu-Arg-Pro-Gly-NH2]: the Kd was 3300 nM in experiment [1], 769 nM in experiment [2] and 9.17 nM in experiment [4]. Further, the “Suppression of HepG2 growth ED50” value in experiment [3] was 2.00 nM; in experiment [3] (calculated at day 4 of growth), 2.00 ± 0.9 nM. In addition, the HepG2 doubling time in experiment [3] (10 nM, calculated over 4 days of growth) is 65 ± 4.9 h; in experiment [3] (100 nM, calculated over 4 days of growth), 77 ± 6.7 h; in experiment [3] (1000 nM, growth phase, over 4 days of growth), 105 ± 10.0 h. The “Effect on HepG2 cell proliferation, repeated administration” value in experiment [3] (10^-7 M every two days, six days in culture) was “significantly suppressed”. Further, the “Reversal of HepG2 growth suppression after removing the peptide or adding GnRH antagonist” value in experiment [3] (after three days of treatment) is “can not be reversed; also recorded: cannot be reversed”. The “Effect on HepG2 cell proliferation” value in experiment [3] (single administration at 10^-7 M, six days in culture) was “significantly suppressed”. In experiment [5], the “3H-thymidine incorporation in HuH-7 cells” value is reported as “blocked further ^3 H-thymidine incorporation above day 1 level”. In experiment [6] (10^-7 M, over 4 days of incubation), the “3H-thymidine incorporation in HepG2 cells” value is reported as “blocked further ^3 H-thymidine incorporation above the day 1 level”. For the same compound, the “ED50, inhibition of DNA synthesis (3H-thymidine incorporation) in HepG2 cells” value in experiment [6] (after 72 hours in culture) is 0.18 ± 0.03 nM; in experiment [6] (after 96 hours in culture), 0.14 ± 0.02 nM. For the same compound, in experiment [7], the “Effect on HuH-7 cell proliferation” value is on record as “significantly suppressed; also recorded: totally inhibited”.
